Assay results published in US10869850B2, “Nitrated-fatty acids modulation of type II diabetes” (University of Pittsburgh—Of the Commonwealth System of …, priority 2007, dated 2020).
Entries after “also recorded” stand apart in the source; their conditions may differ. Where two headings read alike, the source gives them in different places.

Experiments:
[1] = analysis of mouse plasma after intravenous administration of nitro oleic acid; format: in vivo
Description: In contrast, the plasma levels for the β-oxidation products are highest at around 60 minutes.

WT mice [2] = test: insulin sensitivity in WT mice (FIG. 5); format: in vivo, mouse
WT mice [3] = test: blood glucose levels in fed WT mice (FIG. 2); format: in vivo, mouse
From the text: Similar results are observed in experiments involving ob/ob mice.

ob/ob mice [4] = test: insulin sensitivity in ob/ob mice (FIG. 6); format: in vivo, mouse
ob/ob mice [5] = conditions: mouse, in vivo
ob/ob mice [6] = test: blood glucose levels in leptin-deficient diabetic ob/ob mice (FIG. 3); format: in vivo, mouse; conditions: for blood glucose levels: over the course of the study, FIG. 3
From the text: In a related vein, the invention encompasses a method for gauging the therapeutic efficacy of the composition as described above. This method involves obtaining at least two blood samples from a subject at different times during treatment and measuring the level of blood glucose in each sample.

ob/ob mice [7] = test: body weight of ob/ob mice (FIG. 4); conditions: entire course of the study
WT mice [8] = test: body weight of WT mice (FIG. 4); conditions: course of the study (25 days)
[9] = following intravenous administration of nitro oleic acid

## 9- or 10-nitro octadecenoic acid [nitro oleic acid]
[1]; [9]
  shape of plasma level curve as a function of time: biphasic
  time of peak plasma concentration: around 5 minutes
[1]; intravenous administration
  physiological fate (metabolism in vivo): converted in-vivo, to its saturated analog, or can undergo β-oxidative cleavage
WT mice [2]
  blood glucose levels after administration of insulin: initial drop in blood glucose levels followed by an elevation to normal levels
WT mice [3]; WT mice
  effectiveness in maintaining blood glucose levels compared with Rosiglitazone: at least as effective as Rosiglitazone
WT mice [3]; fed WT mice
  blood glucose level: maintains a steady blood glucose level
ob/ob mice [4]
  insulin sensitivity: improves insulin sensitivity
ob/ob mice [4]; FIG. 6
  blood glucose levels after administration of insulin: substantial decrease in blood glucose levels
ob/ob mice [5]
  side-effects of weight gain and fluid retention: without the side-effects of weight gain and fluid retention
ob/ob mice [6]; day 21, FIG. 3
  blood glucose levels on day 21 versus beginning of the study: significantly lower on day 21 than at the beginning of the study
ob/ob mice [6]
  blood glucose levels: lower blood glucose levels; also recorded: effective in reducing blood glucose levels

## CN(CCOc1ccc(CC2SC(=O)NC2=O)cc1)c1ccccn1 (stereo not drawn) [Rosiglitazone]
ob/ob mice [7]
  body weight: steady increase in body weights
WT mice [8]
  body weight: do not change over the course of the study

## CCCCCCCC/C=C\CCCCCCCC(=O)O [oleic acid, (Z)-octadec-9-enoic acid, reference compound]
ob/ob mice [5]
  body weight: steady increase in body weights
ob/ob mice [6]
  blood glucose levels: blood glucose levels increased over the course of the study
